Like-named read-outs stand apart in the source and are kept apart here.
Tests used:
[1] = test system: MDA-MB-436 (BRCA1 mutant) cell line; experiment: Viability assay in BRCA1 mutant cell line MDA-MB-436; format: cell-based; conditions: BRCA1 mutant MDA-MB-436, read-out: MDA-MB-436 rel IC50
Source text: (§1) Table 1 also indicates IC50 values in a viability assay for a non-isogenic pair of BRCA1 mutant (column 5—MDA-MB-436) and BRCA1 WT (column 6—HCC1954) cell lines. These values indicate the effect of treatment with compound on cell survival.

monoubiquitinated PCNA = experiment: AlphaLISA assay measuring monoubiquitinated PCNA in MDA-MB-436; format: cell-based; conditions: read-out: Alpha LISA IC50
Source text: Table 1 also indicates IC50 values for exemplary compounds in an AlphaLISA assay measuring monoubiquitinated PCNA in a BRCA1 mutant cell line (MDA-MB-436; column 7).

[2] = test system: HCC1954 (BRCA1 WT) cell line; experiment: Viability assay in BRCA1 WT cell line HCC1954; format: cell-based; conditions: read-out: HCC 1954 IC50 rel IC50
Source text: as §1

USP1-UAF1 = USP1-UAF1 (Homo sapiens, UniProt O94782); experiment: Ubiquitin Rhodamine assay for USP1-UAF1 activity; format: biochemical
Chain of USP1-UAF1 (O94782 whole entry): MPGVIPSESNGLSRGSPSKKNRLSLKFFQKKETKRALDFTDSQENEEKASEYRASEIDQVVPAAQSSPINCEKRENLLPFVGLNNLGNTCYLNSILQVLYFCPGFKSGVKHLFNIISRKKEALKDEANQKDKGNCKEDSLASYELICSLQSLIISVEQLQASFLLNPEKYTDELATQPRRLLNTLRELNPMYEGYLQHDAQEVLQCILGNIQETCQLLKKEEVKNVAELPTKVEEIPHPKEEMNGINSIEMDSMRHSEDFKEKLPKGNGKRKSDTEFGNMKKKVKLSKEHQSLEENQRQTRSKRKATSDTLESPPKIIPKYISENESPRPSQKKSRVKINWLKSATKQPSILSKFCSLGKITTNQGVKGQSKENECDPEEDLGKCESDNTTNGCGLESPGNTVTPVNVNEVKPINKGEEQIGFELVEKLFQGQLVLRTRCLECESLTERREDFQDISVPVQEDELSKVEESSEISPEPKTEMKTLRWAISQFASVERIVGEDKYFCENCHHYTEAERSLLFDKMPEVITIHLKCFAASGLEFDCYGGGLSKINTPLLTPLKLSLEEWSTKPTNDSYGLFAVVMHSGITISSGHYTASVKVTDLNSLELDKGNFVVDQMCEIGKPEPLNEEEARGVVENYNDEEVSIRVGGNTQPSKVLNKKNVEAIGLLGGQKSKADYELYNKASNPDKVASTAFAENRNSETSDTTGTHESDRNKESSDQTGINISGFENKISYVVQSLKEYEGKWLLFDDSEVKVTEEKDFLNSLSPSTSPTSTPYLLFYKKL
Chain of USP1-UAF1 (Q8TAF3 whole entry partner): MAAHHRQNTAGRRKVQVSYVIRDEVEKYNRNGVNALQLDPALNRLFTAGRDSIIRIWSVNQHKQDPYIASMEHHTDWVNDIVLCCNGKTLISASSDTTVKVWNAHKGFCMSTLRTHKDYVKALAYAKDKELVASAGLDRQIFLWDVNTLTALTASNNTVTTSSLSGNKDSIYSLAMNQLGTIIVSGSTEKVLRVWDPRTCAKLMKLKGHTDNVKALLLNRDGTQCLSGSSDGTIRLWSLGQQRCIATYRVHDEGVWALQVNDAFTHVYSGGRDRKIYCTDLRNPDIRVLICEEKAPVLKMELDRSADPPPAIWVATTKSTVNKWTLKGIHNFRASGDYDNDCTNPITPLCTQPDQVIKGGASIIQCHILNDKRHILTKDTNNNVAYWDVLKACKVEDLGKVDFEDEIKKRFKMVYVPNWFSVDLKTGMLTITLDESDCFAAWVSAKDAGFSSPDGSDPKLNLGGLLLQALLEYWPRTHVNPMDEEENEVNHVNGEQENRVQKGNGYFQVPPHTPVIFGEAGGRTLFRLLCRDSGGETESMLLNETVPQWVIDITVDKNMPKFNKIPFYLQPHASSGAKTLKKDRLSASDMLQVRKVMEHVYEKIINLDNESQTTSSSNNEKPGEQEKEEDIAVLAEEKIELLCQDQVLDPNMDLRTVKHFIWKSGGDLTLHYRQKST
Description: Certain compounds of the disclosure were assessed for USP1-UAF1 activity in a Ubiquitin Rhodamine assay as described in Example 135.

[3] = Homo sapiens, MDA-MB-436, viability

Row | Compound | IC50 [1, 3] [µM] | IC50 (monoubiquitinated PCNA; Homo sapiens) [µM] | IC50 ([2]; Homo sapiens) [µM] | IC50 (USP1-UAF1) [µM] | IC50 ([1]; viability) [µM] | IC50 (monoubiquitinated PCNA) [µM] | IC50 [2] [µM]
1 | COc1ncnc(C2CC2)c1-c1ncc2[nH]cc(C3(c4ccc(-c5nc(C(F)(F)F)cn5C)cc4)CC3)c2n1 [Compound 47, 2-(4-cyclopropyl-6-methoxy-pyrimidin-5-yl)-7-[1-[4-[1-methyl-4-(trifluoromethyl)imidazol-2-yl]phenyl]cyclopropyl]-5H-pyrrolo[3,2-d]pyrimidine] | 0.25 to 10 | 0.1 to 0.25 | ≥ 10 | 0.03 to 0.1 |  |  | 
2 | COc1ncnc(C2(F)CC2)c1-c1ncc2[nH]cc(Cc3ccc(-c4nc(C(F)(F)F)cn4C)cc3)c2n1 [Compound 87] | < 0.1 | < 0.1 | ≥ 10 | < 0.03 |  |  | 
3 | COc1ncnc(C2CC2)c1-c1ncc2[nH]nc(Cc3ccc(-n4nc(C(F)(F)F)cc4OC)cc3)c2n1 [Compound 140, 5-(4-cyclopropyl-6-methoxy-pyrimidin-5-yl)-3-[[4-[5-methoxy-3-(trifluoromethyl)pyrazol-1-yl]phenyl]methyl]-1H-pyrazolo[4,3-d]pyrimidine] | < 0.1 | 0.1 to 0.25 | 0.25 to 10 | < 0.03 |  |  | 
4 | COc1ccnc(C2CC2)c1-c1ncc2[nH]cc(Cc3ccc(-c4nc(C(F)(F)F)cn4C)cc3)c2n1 [Compound 161] | < 0.1 | 0.1 to 0.25 | ≥ 10 | 0.03 to 0.1 |  |  | 
5 | CNCc1[nH]c2cnc(-c3c(OC)ncnc3C3CC3)nc2c1Cc1ccc(-c2nc(C(F)(F)F)cn2C)cc1 [Compound 159, 1-[2-(4-cyclopropyl-6-methoxy-pyrimidin-5-yl)-7-[[4-[1-methyl-4-(trifluoromethyl)imidazol-2-yl]phenyl]methyl]-5H-pyrrolo[3,2-d]pyrimidin-6-yl]-N-methyl-methanamine] | 0.1 to 0.25 | 0.1 to 0.25 | 0.25 to 10 | 0.1 to 10 |  |  | 
6 | Cn1cc(C(F)(F)F)nc1-c1ccc(Nc2c[nH]c3cnc(-c4ccccc4C4CC4)nc23)cc1 [Compound 12, 2-(2-cyclopropylphenyl)-N-[4-[1-methyl-4-(trifluoromethyl)imidazol-2-yl]phenyl]-5H-pyrrolo[3,2-d]pyrimidin-7-amine] | 0.25 to 10 | 0.25 to 10 | 0.25 to 10 | 0.1 to 10 |  |  | 
7 | COc1ncccc1-c1ncc2[nH]cc(Cc3ccc(-c4nc(C(F)(F)F)cn4C)cc3)c2n1 [Compound 11, 2-(2-methoxy-3-pyridyl)-7-[[4-[1-methyl-4-(trifluoromethyl)imidazol-2-yl]phenyl]methyl]-5H-pyrrolo[3,2-d]pyrimidine] | 0.25 to 10 | 0.1 to 0.25 | ≥ 10 | 0.03 to 0.1 |  |  | 
8 | COc1ncnc(C2CC2)c1-c1ncc2[nH]nc(Cc3ccc(-c4nc(C(F)(F)F)cn4C)c(C)c3)c2n1 [Compound 95, 5-(4-cyclopropyl-6-methoxy-pyrimidin-5-yl)-3-[[3-methyl-4-[1-methyl-4-(trifluoromethyl)imidazol-2-yl]phenyl]methyl]-1H-pyrazolo[4,3-d]pyrimidine] | < 0.1 | < 0.1 | ≥ 10 | < 0.03 |  |  | 
9 | CC(C)n1cc(C(F)(F)F)nc1-c1ccc(Cc2n[nH]c3cnc(-c4c(OC(F)F)ncnc4C4CC4)nc23)cc1 [Compound 137, 5-(4-cyclopropyl-6-(difluoromethoxy)pyrimidin-5-yl)-3-(4-(1-isopropyl-4-(trifluoromethyl)-1H-imidazol-2-yl)benzyl)-1H-pyrazolo[4,3-d]pyrimidine] | < 0.1 | < 0.1 | 0.25 to 10 | < 0.03 |  |  | 
10 | COc1ncnc(C2CC2)c1-c1ncc2[nH]nc(Cc3cc(F)c(-n4nc(C(F)(F)F)cc4C)c(F)c3)c2n1 [Compound 129] | 0.1 to 0.25 | 0.1 to 0.25 | 0.25 to 10 | < 0.03 |  |  | 
11 | COc1ncnc(C2CC2(F)F)c1-c1ncc2[nH]nc(Cc3ccc(-c4nc(C(F)(F)F)cn4C)cc3)c2n1 (centres unmarked) [Compound 172, 5-[4-(2,2-difluorocyclopropyl)-6-methoxy-pyrimidin-5-yl]-3-[[4-[1-methyl-4-(trifluoromethyl)imidazol-2-yl]phenyl]methyl]-1H-pyrazolo[4,3-d]pyrimidine] | < 0.1 | < 0.1 | ≥ 10 | < 0.03 |  |  | 
12 | CCn1cc(C(F)(F)F)nc1-c1ccc(Cc2n[nH]c3cnc(-c4c(OC)ncnc4C4CC4)nc23)cc1 [Compound 165, 5-(4-cyclopropyl-6-methoxypyrimidin-5-yl)-3-(4-(1-ethyl-4-(trifluoromethyl)-1H-imidazol-2-yl)benzyl)-1H-pyrazolo[4,3-d]pyrimidine] | < 0.1 | < 0.1 | ≥ 10 | < 0.03 |  |  | 
13 | COc1ncnc(C2CC2)c1-c1ncc2c(n1)c(Cc1ccc(-c3nc(C(F)(F)F)cn3C)cc1)cn2CC(F)(F)F [Compound 125, 2-(4-cyclopropyl-6-methoxy-pyrimidin-5-yl)-7-[[4-[1-methyl-4-(trifluoromethyl)imidazol-2-yl]phenyl]methyl]-5-(2,2,2-trifluoroethyl)pyrrolo[3,2-d]pyrimidine] | < 0.1 | < 0.1 | 0.25 to 10 | < 0.03 |  |  | 
14 | COc1ncnc(C2CC2)c1-c1ncc2nn(S(C)(=O)=O)c(Cc3ccc(-c4nc(C(F)(F)F)cn4C)cc3)c2n1 [Compound 164, 5-(4-cyclopropyl-6-methoxy-pyrimidin-5-yl)-2-methylsulfonyl-3-[[4-[1-methyl-4-(trifluoromethyl)imidazol-2-yl]phenyl]methyl]pyrazolo[4,3-d]pyrimidine] | < 0.1 | < 0.1 | ≥ 10 | 0.03 to 0.1 |  |  | 
15 | Cn1cc(C(F)(F)F)nc1-c1ccc(Cc2n[nH]c3cnc(-c4c(C5CC5)ccnc4C4CC4)nc23)cc1 [Compound 174] | 0.1 to 0.25 | 0.1 to 0.25 | ≥ 10 | < 0.03 |  |  | 
16 | CNc1ncnc(C2CC2)c1-c1ncc2[nH]cc(Cc3ccc(-c4nc(C(F)(F)F)cn4C)cc3)c2n1 [Compound 175] | 0.1 to 0.25 | 0.1 to 0.25 | ≥ 10 | 0.1 to 10 |  |  | 
17 | CC(C)c1ccccc1-c1ncc2[nH]cc(C(C)(O)c3ccc(-c4nc(C(F)(F)F)cn4C)cc3)c2n1 (centres unmarked) [Compound 48, 1-[2-(2-isopropylphenyl)-5H-pyrrolo[3,2-d]pyrimidin-7-yl]-1-[4-[1-methyl-4-(trifluoromethyl)imidazol-2-yl]phenyl]ethanol] | < 0.1 | < 0.1 | ≥ 10 | < 0.03 |  |  | 
18 | COc1ncnc(C2CC2)c1-c1ncc2c(n1)c(Cc1ccc(-c3nc(C(F)(F)F)cn3C)cc1)cn2C(C)C [Compound 91] | 0.1 to 0.25 | 0.1 to 0.25 | ≥ 10 | 0.1 to 10 |  |  | 
19 | CCCOc1ncccc1-c1ncc2[nH]cc(Cc3ccc(-c4nc(C(F)(F)F)cn4C)cc3)c2n1 [Compound 34, 7-[[4-[1-methyl-4-(trifluoromethyl)imidazol-2-yl]phenyl]methyl]-2-(2-propoxy-3-pyridyl)-5H-pyrrolo[3,2-d]pyrimidine] | 0.1 to 0.25 | 0.1 to 0.25 | ≥ 10 | 0.03 to 0.1 |  |  | 
20 | COc1nccc(C2CC2)c1-c1ncc2[nH]cc(Cc3ccc(-c4nc(C(F)(F)F)cn4C)cc3)c2n1 [Compound 152, 2-(4-cyclopropyl-2-methoxy-3-pyridyl)-7-[[4-[1-methyl-4-(trifluoromethyl)imidazol-2-yl]phenyl]methyl]-5H-pyrrolo[3,2-d]pyrimidine] | < 0.1 | < 0.1 | ≥ 10 | < 0.03 |  |  | 
21 | CC(C)c1ccccc1-c1ncc2[nH]nc(Cc3ccc(-c4nc(C(F)(F)F)cn4C)cc3)c2n1 [Compound 27, 5-(2-isopropylphenyl)-3-[[4-[1-methyl-4-(trifluoromethyl)imidazol-2-yl]phenyl]methyl]-1H-pyrazolo[4,3-d]pyrimidine] | < 0.1 | < 0.1 | ≥ 10 | < 0.03 |  |  | 
22 | Cn1cc(C(F)(F)F)nc1-c1ccc(Cc2c[nH]c3cnc(-c4c(C5CC5)ccnc4C4CC4)nc23)cc1 [Compound 122] | 0.1 to 0.25 | 0.25 to 10 | ≥ 10 | < 0.03 |  |  | 
23 | COc1ncnc(C2(F)CC2)c1-c1ncc2[nH]nc(Cc3ccc(-c4nc(C(F)(F)F)cn4C)cc3)c2n1 [Compound 202, 5-[4-(1-fluorocyclopropyl)-6-methoxy-pyrimidin-5-yl]-3-[[4-[1-methyl-4-(trifluoromethyl)imidazol-2-yl]phenyl]methyl]-1H-pyrazolo[4,3-d]pyrimidine] | < 0.1 | < 0.1 | ≥ 10 | < 0.03 |  |  | 
24 | COc1cccc(OC)c1-c1ncc2[nH]cc(Cc3ccc(-c4nc(C(F)(F)F)cn4C)cc3)c2n1 [Compound 194] | 0.1 to 0.25 | 0.25 to 10 | ≥ 10 | 0.03 to 0.1 |  |  | 
25 | Cn1cc(C(F)(F)F)nc1-c1ccc(C(O)c2c[nH]c3cnc(-c4c(OC(F)F)ncnc4C4CC4)nc23)cc1 (single isomer, unassigned) [Compound 141] |  |  |  | < 0.03 | < 0.1 | < 0.1 | ≥ 10
26 | Cn1cc(C(F)(F)F)nc1-c1ccc(Cc2n[nH]c3cnc(-c4c(C5CC5)ncnc4C4CC4)nc23)cc1 [Compound 183, 5-(4,6-dicyclopropylpyrimidin-5-yl)-3-[[4-[1-methyl-4-(trifluoromethyl)imidazol-2-yl]phenyl]methyl]-1H-pyrazolo[4,3-d]pyrimidine] | < 0.1 | < 0.1 | ≥ 10 | < 0.03 |  |  | 
